# Laboratory results published in patent publication EP0344708A2, “Composition for external application to skin” (LION CORPORATION, priority 1988, dated 1989).
# How the values were obtained:
# [1] = system: incised wound; experiment: Incised wound healing in rats (tension needed to peel skin at the wound, tensile strength tester); format: in vivo, Wistar male rats; settings: relative to control (physiological saline) = 100; Concn. 0.5 % in saline, subcutaneously once a day for 7 days, 0.67 ml/kg/day; tension measured 8 days after operation; 8 rats per group
# Excerpt: Groups of Wistar male rats (SPF; each group comprising 8 animals) were anesthetized with Nembutal® pentobarbital sodium) injection and hair was removed from the back of each rat over a wide area. After disinfecting the area with alcohol, a sharp incised wound having a length of 4 cm was mesially formed with a scalpel and it was stitched up, with Mitchell needles, at three positions at regular intervals (the Mitchell needles were removed 4 days after the operation).
# After forming incised wound, an effective component was dissolved in a saline solution and administered subcutaneously once a day for 7 days successively (dose: 0.67 m ℓ/kg/day). The animals were sacrificed 8 days after the operation, the skin of the wounded part was peeled off to remove subcutis followed by preparing three pieces of the skin perpendicular to the line of the incised wound, having a width of 1 cm, per rat and determining tention (g/cm) required for peeling off each piece of the skin at the incised wound portion utilizing a tensile strength tester. The relative value of the average of the measured tension with respect to that of the control was defined as an indication of the rate of healing of the wound. The results obtained are listed in Table III given below (the results are expressed in the value relative to that of the control which is defined as 100).
# [2] = system: defective wound; experiment: Circular defective wound in rats (weight of regenerated granulation); format: in vivo, Wistar male rats; settings: relative to control (10% ethanol aqueous solution) = 100; Concn. 0.1 % in 10% ethanol aqueous solution, applied to wound twice a day, 1 ml per application, 5 days; granulation weight 6 days after wounding; 6 rats per group
# Experimental: Groups of Wistar male rats (SPF; each group comprising 6 animals) were anesthetized and hair was removed from the back of each rat. Then a circular defective wound having a diameter of 12 mm was formed on the skin of the back from which hair had been removed.
# After forming the defective wound, an effective component was dissolved in 10% ethanol aqueous solution and applied to the wounded portion twice a day in a dose of 1 mℓ per application for 5 days successively. 6 Days after the formation of the wound, the animals were sacrificed to cut off the formed granulation from the defective portion and the weight of the granulation was determined. The relative value of the average of the measured weight with respect to that of the control was defined as an indication of the rate of healing of the defective wound. The results obtained are listed in Table IV given below (the results are expressed in the value relative to that of the control which is defined as 100).
# [3] = Stability of the compound in the used composition after the use test, HPLC; format: physicochemical; settings: on the average, 131400 min
Structure (SMILES),Rate of Relative Healing [1],Rate of Regenerated Granulation [2],rate of Compound I-A ·2Ca remaining in the milky lotion ([3]; in the used milky lotion (0.05 %) after completion of the 3-month test),rate of Compound I-A ·6Na remaining in the beauty essence ([3]; in the used beauty essence (0.1 %) after completion of the 3-month test),rate of the remaining Compound I-A ([3]; in the used toilet water (0.1 %) after completion of the 3-month test)
"CC(C)(COP(=O)(O)OP(=O)(O)OC[C@H]1O[C@@H](n2cnc3c(N)ncnc32)[C@H](O)[C@@H]1OP(=O)(O)O)[C@@H](O)C(=O)NCCC(=O)NCCS [Coenzyme A ·3Na, reference compound]",117,119,,,
CC(C)(COP(=O)(O)OP(=O)(O)OC[C@H]1O[C@@H](n2cnc3c(N)ncnc32)[C@H](O)[C@@H]1OP(=O)(O)O)[C@@H](O)C(=O)NCCC(=O)NCCSSCCNC(=O)CCNC(=O)[C@H](O)C(C)(C)COP(=O)(O)OP(=O)(O)OC[C@H]1O[C@@H](n2cnc3c(N)ncnc32)[C@H](O)[C@@H]1OP(=O)(O)O [Compound I-A ·2Ca],,,98.8%,,
CC(C)(COP(=O)(O)OP(=O)(O)OC[C@H]1O[C@@H](n2cnc3c(N)ncnc32)[C@H](O)[C@@H]1OP(=O)(O)O)[C@@H](O)C(=O)NCCC(=O)NCCSSCCNC(=O)CCNC(=O)[C@H](O)C(C)(C)COP(=O)(O)OP(=O)(O)OC[C@H]1O[C@@H](n2cnc3c(N)ncnc32)[C@H](O)[C@@H]1OP(=O)(O)O [Compound I-A ·6Na],126,148,,98.5%,
CC(C)(COP(=O)(O)OP(=O)(O)OC[C@H]1O[C@@H](n2cnc3c(N)ncnc32)[C@H](O)[C@@H]1OP(=O)(O)O)[C@@H](O)C(=O)NCCC(=O)NCCSSCCNC(=O)CCNC(=O)[C@H](O)C(C)(C)COP(=O)(O)OP(=O)(O)OC[C@H]1O[C@@H](n2cnc3c(N)ncnc32)[C@H](O)[C@@H]1OP(=O)(O)O [Compound I-A],,,,,97.8%
